Test results from ChEMBL document CHEMBL1143282, “Synthesis and evaluation of photoreactive probes to elucidate iodide efflux in thyrocytes” (Bioorg Med Chem Lett, 2009).
Activity calls are given as the source filed them. No cut-off for these calls is given here.

Experiments:
FRTL-5 [1] = test: Iodide sequestering activity in rat FRTL5 cells assessed as enhancement of intracellular iodide entrapment at 0.1 to 200 uM after 120 mins in dark by scintillation counting; assay type: functional, cell-based
[2] = Chemical stability in MeCN/H2O at 4mCi/mL; assay type: physicochemical
FRTL-5 [3] = test: Iodide sequestering activity in rat FRTL5 cells assessed as enhancement of intracellular iodide entrapment at 20 uM after 120 mins in dark by scintillation counting relative to sodium perchlorate; assay type: functional
FRTL-5 [4] = test: Iodide sequestering activity in rat FRTL5 cells assessed as enhancement of intracellular iodide entrapment after 120 mins in dark by scintillation counting; assay type: functional, cell-based; details: for EC50: FRTL-5, 2 h
FRTL-5 [5] = test: Iodide sequestering activity in rat FRTL5 cells assessed as enhancement of intracellular iodide entrapment at 200 uM after 120 mins in dark by scintillation counting relative to sodium perchlorate; assay type: functional
[6] = Chemical stability assessed as photodecomposition-associated half life in MeCN using UV lamp; assay type: physicochemical; details: MeCN solution irradiated with UV lamp
FRTL-5 [7] = test: Iodide sequestering activity in rat FRTL5 cells assessed as enhancement of intracellular iodide entrapment at 50 uM after 120 mins in dark by scintillation counting relative to sodium perchlorate; assay type: functional

N#[N+]c1ccc(-c2ccc(C3=CSC4=NCCN34)cc2)cc1
Activity (FRTL-5 [1]): inactive

[3H]C1=C(c2ccc(C(=O)c3ccccc3)cc2)N2CCN=C2S1
Stability [2]: 6 months

C1=C(c2ccc(-c3ccccc3)cc2)N2CCN=C2S1
fold change (FC) (FRTL-5 [3]): 2.5 | EC50 (FRTL-5 [4]): 20 µM

O=C(c1ccccc1)c1ccc(C2=CSC3=NCCN23)cc1
fold change (FC) (FRTL-5 [5]): 2.5 | half-life [6]: 12 min | Activity (FRTL-5 [4]): Dose-dependent effect | EC50 (FRTL-5 [4]): 50 µM | Activity (FRTL-5 [1]): Active | fold change (FC) (FRTL-5 [7]): 1.8

FC(F)(F)C1(c2ccc(C3=CSC4=NCCN34)cc2)N=N1
Activity (FRTL-5 [1]): inactive

[N-]=[N+]=Nc1ccc(-c2ccc(C3=CSC4=NCCN34)cc2)cc1
Activity (FRTL-5 [1]): inactive
